Experimental data: ChEMBL document CHEMBL1201862, “PubChem BioAssay data set” (2004)
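How tested: cells in 96-well plates exposed to compound for 48 hours at five concentrations. The concentration for 50% growth inhibition is given as GI50.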 The source made the active and inactive calls. Cut-off read from the data, not from the text of the source: active = GI50 up to about 1.1 µM and inactive = higher.

Key:
Assay in all cases: DTP human tumour cell line panel, 48 h
NCI-H226 = system: NCI-H226
T47D = system: T47D
BT-549 = system: BT-549
CCRF-CEM = system: CCRF-CEM
NCI-H23 = system: NCI-H23
MCF7 = system: MCF7
HL-60 = system: HL-60
PC-3 = system: PC-3
OVCAR-5 = system: OVCAR-5
UO-31 = system: UO-31
OVCAR-3 = system: OVCAR-3
DU-145 = system: DU-145
SN12C = system: SN12C
SF-268 = system: SF-268
HOP-92 = system: HOP-92
U-251 = system: U-251
KM12 = system: KM12
HCC 2998 = system: HCC 2998
OVCAR-8 = system: OVCAR-8

Compound	GI50 (NCI-H226)	GI50 (T47D)	GI50 (BT-549)	GI50 (CCRF-CEM)	GI50 (NCI-H23)	GI50 (MCF7)	GI50 (HL-60)	GI50 (PC-3)	GI50 (OVCAR-5)	GI50 (UO-31)	GI50 (OVCAR-3)	GI50 (DU-145)	GI50 (SN12C)	GI50 (SF-268)	GI50 (HOP-92)	GI50 (U-251)	GI50 (KM12)	GI50 (HCC 2998)	GI50 (OVCAR-8)
COc1cccc(NCC(=O)Nn2c(-c3ccccc3)nc3ccccc3c2=O)c1	> 100 µM (inactive)	> 100 µM (inactive)	> 100 µM (inactive)	82 µM (inactive)	> 100 µM (inactive)	52.2 µM (inactive)	> 100 µM (inactive)	> 100 µM (inactive)	> 100 µM (inactive)	> 100 µM (inactive)	> 100 µM (inactive)	> 100 µM (inactive)	> 100 µM (inactive)	> 100 µM (inactive)	49.3 µM (inactive)	> 100 µM (inactive)	> 100 µM (inactive)	> 100 µM (inactive)	> 100 µM (inactive)
Cc1cc(C)nc(NS(=O)(=O)c2ccc(NNC(=O)c3cccc4c(NNc5ccc(S(=O)(=O)Nc6nc(C)cc(C)n6)cc5)c5ccccc5nc34)cc2)n1	25.2 µM (inactive)	19.5 µM (inactive)	24.7 µM (inactive)	18.5 µM (inactive)	22.8 µM (inactive)	31.5 µM (inactive)	20.7 µM (inactive)	24.3 µM (inactive)	20.1 µM (inactive)	18.9 µM (inactive)	28.3 µM (inactive)	19.4 µM (inactive)	31.1 µM (inactive)	20.7 µM (inactive)	17.8 µM (inactive)	22.9 µM (inactive)	17.8 µM (inactive)	21.4 µM (inactive)	20.6 µM (inactive)
CC1=NN(c2ccc(C)cc2)C2(C1)SCC(=O)N2c1nc2ccccc2s1 (stereo not given)	11.3 µM (inactive)	11.8 µM (inactive)	24.2 µM (inactive)	5.22 µM (inactive)	24 µM (inactive)	4.7 µM (inactive)	13.1 µM (inactive)	20.5 µM (inactive)	37.2 µM (inactive)	22.9 µM (inactive)	12.2 µM (inactive)	29.5 µM (inactive)	11.2 µM (inactive)	20.2 µM (inactive)	49.3 µM (inactive)	16.6 µM (inactive)	27 µM (inactive)	22.9 µM (inactive)	31.6 µM (inactive)
CC(N/N=C(\S)N1CCN(c2ccccn2)CC1)c1nccc2ccccc12 (stereo not given)	1.83 µM (inactive)	< 0.01 µM (active)	10.4 µM (inactive)	< 0.01 µM (active)	1.79 µM (inactive)	1.07 µM (active)	< 0.01 µM (active)	0.589 µM (active)	0.453 µM (active)	1.06 µM (active)	< 0.0121 µM (active)	1.32 µM (inactive)	0.927 µM (active)	0.514 µM (active)	0.957 µM (active)	0.385 µM (active)	3.16 µM (inactive)	0.769 µM (active)	0.104 µM (active)
CCN1CCC(O)(/C=C/c2ccc(OC)cc2)C(C(=O)/C=C/c2ccc(OC)cc2)C1 (stereo not given)	16 µM (inactive)	6.04 µM (inactive)	15.5 µM (inactive)	1.34 µM (inactive)	12.4 µM (inactive)	3.08 µM (inactive)	3.15 µM (inactive)	11.3 µM (inactive)	15.2 µM (inactive)	9.93 µM (inactive)	14.1 µM (inactive)	10.9 µM (inactive)	14.8 µM (inactive)	13.8 µM (inactive)	9.48 µM (inactive)	6.34 µM (inactive)	7.8 µM (inactive)	14.9 µM (inactive)	> 10 µM (inactive)
O=C(N1CCN(c2ccccc2)CC1)N(C(=O)C1(c2ccc(Cl)cc2)CCCC1)S(=O)(=O)c1ccccc1	33.3 µM (inactive)	27.7 µM (inactive)	27.8 µM (inactive)	29.7 µM (inactive)	26.7 µM (inactive)	26.9 µM (inactive)	27.7 µM (inactive)	26.6 µM (inactive)	24.8 µM (inactive)	32.8 µM (inactive)	31.6 µM (inactive)	38.5 µM (inactive)	28.3 µM (inactive)	39.9 µM (inactive)	32.8 µM (inactive)	21.8 µM (inactive)	35.9 µM (inactive)	23.9 µM (inactive)	33 µM (inactive)
COC(=O)/N=[N+](\[O-])C(c1ccc(OC)cc1)C1CCCCC1 (stereo not given)	5.16 µM (inactive)	0.303 µM (active)	8.39 µM (inactive)	2.2 µM (inactive)	0.664 µM (active)	7.35 µM (inactive)	0.787 µM (active)	1.69 µM (inactive)	2.58 µM (inactive)	5.82 µM (inactive)	6.15 µM (inactive)	1.86 µM (inactive)	1.8 µM (inactive)	4.23 µM (inactive)	5.85 µM (inactive)	1.03 µM (active)	2.39 µM (inactive)	2.12 µM (inactive)	4.75 µM (inactive)
CC(C)(C)c1cc2c(OC/C=C/c3ccccc3)c(c1)Cc1cc(C(C#N)(OC/C=C/c3ccccc3)OC/C=C/c3ccccc3)cc(c1OC/C=C\c1ccccc1)Cc1cc(C(C)(C)C)cc(c1OC/C=C/c1ccccc1)Cc1cc(C(C#N)(OC/C=C\c3ccccc3)OC/C=C/c3ccccc3)cc(c1OC/C=C\c1ccccc1)C2 (stereo not given)	> 100 µM (inactive)	> 100 µM (inactive)	> 100 µM (inactive)	> 100 µM (inactive)	> 100 µM (inactive)	> 100 µM (inactive)	> 100 µM (inactive)	> 100 µM (inactive)	> 100 µM (inactive)	> 100 µM (inactive)	> 100 µM (inactive)	> 100 µM (inactive)	> 100 µM (inactive)	> 100 µM (inactive)	95.5 µM (inactive)	> 100 µM (inactive)	> 100 µM (inactive)	> 100 µM (inactive)	> 100 µM (inactive)
CN(C)CC1=Nc2cccc3cccc(c23)N1	20.3 µM (inactive)	6.11 µM (inactive)	17.6 µM (inactive)	0.235 µM (active)	22.9 µM (inactive)	13.1 µM (inactive)	13.2 µM (inactive)	17 µM (inactive)	17.4 µM (inactive)	9.16 µM (inactive)	16.4 µM (inactive)	17.1 µM (inactive)	16.8 µM (inactive)	18.9 µM (inactive)	18.8 µM (inactive)	16.8 µM (inactive)	25.6 µM (inactive)	17.2 µM (inactive)	33.8 µM (inactive)
Oc1cc2c3c(c1)c1cc4c(cc1c[n+]3CC2)OCO4	2.69 µM (inactive)	3.47 µM (inactive)	1.77 µM (inactive)	2.84 µM (inactive)	1.9 µM (inactive)	7.69 µM (inactive)	3.97 µM (inactive)	3 µM (inactive)	45.6 µM (inactive)	5.42 µM (inactive)	4.88 µM (inactive)	3.23 µM (inactive)	1.29 µM (inactive)	0.224 µM (active)	15.2 µM (inactive)	0.971 µM (active)	1.82 µM (inactive)	4.4 µM (inactive)	0.748 µM (active)
